# Measured values as given in patent US9057727B2, “Screening methods using G-protein coupled receptors and related compositions” (The General Hospital Corporation, priority 2007, dated 2015).
# Ends that are not written are not given here.
# How the values were obtained:
# [1] = system: MC3T3-E1 cells; test: cAMP in MC3T3-E1 cells, dose-response; format: cell-based; conditions: Table 3; read-out: dose-response cAMP in MC3T3-E1 (EC50)
# Protocol: In the 1-30 scaffold, Gly, Ser, Leu, Asn, Gln, Trp, Glu, and Lys were substituted at position 29; Gly, Ser, Leu, Asn, Asp, Trp, and Lys were substituted at position 30; and Ser, Leu, Asn, Val, Trp, Glu, and Lys were substituted at position 31. […] These peptides were tested for cAMP activity in MC3T3-E1 cells.
# [2] = system: MC3T3-E1 cells; test: cAMP screen of EALK-PTHrP(1-31)/(1-34) variants (% parent); format: cell-based
# Description: FIGS. 32A and 32B are graphs showing the effects of amino acid substitutions in the 29-31 region of EALK-PTHrP(1-31) (SEQ ID NO:94) (FIG. 32A) and the 29-33 region of EALK-PTHrP(1-34) (SEQ ID NO:112) (FIG. 32B) on induction of cAMP activity in MC3T3-E1 cells. Substitutions at position 29 for EALK-PTHrP(1-31) were G^29 to S^29 (SEQ ID NO:95-96), L^29 (SEQ ID NO:176), and N^29 to K^29 (SEQ ID NO:97-101). Substitutions at position 30 for EALK-PTHrP(1-31) were G^30 to D^30 (SEQ ID NO:102-106), W^30 (SEQ ID NO:177), and K^30 (SEQ ID NO:107). […] Substitutions for EALK-PTHrP(1-34) A^30 to A^33 (SEQ ID NO:113-116) and EALK-PTHrP(1-28)/PTH(29-34) (SEQ ID NO:117).
# To optimize the activity of the EALK-PTHrP peptides, we generated EALK-PTHrP([…]) and PTHrP(1-34) variants with substitutions in the 29-33 region. In the 1-30 scaffold, Gly, Ser, Leu, Asn, Gln, Trp, Glu, and Lys were substituted at position 29; Gly, Ser, Leu, Asn, Asp, Trp, and Lys were substituted at position 30; and Ser, Leu, Asn, Val, Trp, Glu, and Lys were substituted at position 31. […] A predicted advantage of these longer-length peptides, relative to the PTHrP(1-30) scaffold, is that they will have longer a longer half-life in circulation due to slower clearance. The C-terminal substitutions were thus designed to provide the added chain length, but to avoid increasing R^0 binding affinity, which occurs when the native PTHrP(29-34) region (SEQ ID NO:186) is installed. These peptides were tested for cAMP activity in MC3T3-E1 cells.
# [3] = molecular target: T1, human PTHR, G protein-coupled conformation (RG) (Homo sapiens, UniProt Q03431); test: Competition binding to RG conformation of hPTHR (COS-7 membranes, GαsND, 125I-[Aib1,3,M]PTH(1-15) tracer); conditions: parent PTHrP(1-28)NH
# T1 construct: expressed in transfected cells; host or cells: COS-7, transient (Fugene-6); membranes
# T1 sequence (Q03431 27-593): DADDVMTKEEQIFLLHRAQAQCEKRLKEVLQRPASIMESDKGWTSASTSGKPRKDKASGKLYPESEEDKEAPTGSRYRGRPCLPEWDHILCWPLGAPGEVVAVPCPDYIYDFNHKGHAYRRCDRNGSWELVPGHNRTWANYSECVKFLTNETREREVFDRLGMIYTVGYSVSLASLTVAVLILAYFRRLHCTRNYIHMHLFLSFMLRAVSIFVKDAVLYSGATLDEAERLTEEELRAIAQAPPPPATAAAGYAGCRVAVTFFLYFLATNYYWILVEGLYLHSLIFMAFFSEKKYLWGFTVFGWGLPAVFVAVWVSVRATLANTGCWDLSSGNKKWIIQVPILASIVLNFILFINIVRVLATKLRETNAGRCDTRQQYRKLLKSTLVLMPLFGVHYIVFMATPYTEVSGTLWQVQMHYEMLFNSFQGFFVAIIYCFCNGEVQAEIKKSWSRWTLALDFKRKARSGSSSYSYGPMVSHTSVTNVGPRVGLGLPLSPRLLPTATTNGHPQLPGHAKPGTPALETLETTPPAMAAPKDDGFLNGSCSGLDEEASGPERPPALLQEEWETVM
# [4] = system: LLCPK1-B64 cells or SaOS-2 cells; test: cAMP screen of substituted PTHrP(1-28) analogs (% parent); format: cell-based; conditions: parent PTHrP(1-28)NH
# Protocol: Alanine substitution at position 18, 22, 25 and 26 increased activity in at least one cell type. These positions were further substituted to various types of amino acids, and cAMP activity was analyzed in LLCPK1-B64 cells (FIG. 27C) or SaOS-2 cells (FIG. 27D). Cells were treated with analogs at 3×10^−9M in the presence of IBMX for 30 minutes at room temperature. Responses for each analog were normalized to the response for the parent (native) PTHrP(1-28) peptide. Alanine substitutions were A^15 to A^17 (SEQ ID NO:152-154), A^18 (SEQ ID NO:34), A^19 to A^21 (SEQ ID NO:155-157), A^22 (SEQ ID NO:39), A^23 to A^25 (SEQ ID NO:158-160), A^26 (SEQ ID NO:46), and A^27 to A^28 (SEQ ID NO:161-162). Substitutions at position 18 were A^18 (SEQ ID NO: 34), G^18 (SEQ ID NO:163), S^18 (SEQ ID NO:35), M^18 (SEQ ID NO:36), L^18 (SEQ ID NO:164), F^18 (SEQ ID NO:37), N^18 (SEQ ID NO:165), E^18 (SEQ ID NO:38), and K^18 (SEQ ID NO:166). Substitutions at position 22 were A^22 (SEQ ID NO:39), G^22 (SEQ ID NO:167), and S^22 to K^22 (SEQ ID NO:40-45). Substitutions at position 26 were A^26 (SEQ ID NO:46), G^26 (SEQ ID NO:168), S^26 (SEQ ID NO:47), L^26 (SEQ ID NO:169), N^26 (SEQ ID NO:48), W^26 to E^26 (SEQ ID NO:170-171), and K^26 to R^26 (SEQ ID NO:49-50). Substitutions at position 25 were G^25 to S^25 (SEQ ID NO:172-173), L^25 (SEQ ID NO:51), N^25 (SEQ ID NO:174), W^25 (SEQ ID NO:52), E^25 (SEQ ID NO:175), and K^25 to R^25 (SEQ ID NO:53-54). […]
# [5] = molecular target: T2, human PTHR, G protein-uncoupled conformation (R^0) (Homo sapiens, UniProt Q03431); test: Competition binding to R0 conformation of hPTHR (COS-7 membranes, GTPγS, 125I-PTH(1-34) tracer); conditions: parent PTHrP(1-28)NH
# T2 construct: expressed in transfected cells; host or cells: COS-7, transient (Fugene-6)
# T2 sequence (Q03431 27-593): T1 sequence (Q03431 27-593)
# Protocol: Membranes were prepared from COS-7 cells transfected with the hPTHR alone. GTPγS ([…]) was added to the binding reactions so as to functionally uncouple receptor-heterotrimeric G protein complexes, thus enriching for the R^0 (and R) conformations, relative to RG.
# Reactions contained a total membrane protein concentration of 20 to 100 μg/mL, and a total radioactivity concentration of approximately 150,000 cpm/ml. Unlabeled peptide ligands and/or GTPγS (Sigma-Aldrich Inc. St. Louis, Mo.) were added to the reactions as indicated.
# Membranes, tracer radioligand, and various concentrations of unlabeled ligands and/or GTPγS were incubated in the wells for 90 minutes, following which, the reaction plates were processed by rapid vacuum filtration to separate bound from free radioligand, as described above. […] For both radioligands, the non-specific binding was determined in reactions containing a saturating concentration of the unlabeled analog of the radioligand. The specifically bound radioactivity was calculated as a percent of the radioactivity specifically bound in the absence of a competing ligand or GTPγS.
# To assess the capacities of various unlabeled peptide ligands to bind to the G protein-uncoupled and G protein-coupled PTHR conformations (R^0 and RG, respectively), membranes were prepared from transiently transfected COS-7 cells and the following assay conditions.
# [6] = parent E18,A22,L25,K26-PTHrP(1-34)OH
# [7] = parent E18,A22,L25,K26-PTHrP(1-31)OH
substance,measurement,setting,value
"AVSEHQLLHDKGKSIQDARRRAFLHKLIAE [A18, 22, K26-PTHrP(1-30)NH, A18,22,K26-PTHrP(1-30)]",EC50,[1],58 pM
"AVSEHQLLHDKGKSIQDARRRAFLHKLIAEI [A18, 22, K26-PTHrP(1-31)NH, A18,22,K26-PTHrP(1-31)]",EC50,[1],60 pM
"AVSEHQLLHDKGKSIQDARRRAFLLKLIAEI [A18, 22, L25, K26-PTHrP(1-31)NH, A18,22,L25,K26-PTHrP(1-31)]",EC50,[1],200 pM
"AVSEHQLLHDKGKSIQDERRRAFLHHKIAE [E18, A22, K27-PTHrP(1-30)NH, E18,A22,K27-PTHrP(1-30)]",EC50,[1],82 pM
"AVSEHQLLHDKGKSIQDERRRAFLLKLIAEI [E18, A22, L25, K26-PTHrP(1-31)NH, E18,A22,L25,K26-PTHrP(1-31)]",EC50,[1],112 pM
"E18,A22,L25,K26,A32-PTHrP(1-34) (AVSEHQLLHDKGKSIQDERRRAFLLKLIAEIATA-OH) [E18, A22, L25, K26, A32-PTHrP(1-34)OH]",screen cAMP (% parent),[2]; [6],197 % parent
"E18,A22,L25,K26,A33-PTHrP(1-34) (AVSEHQLLHDKGKSIQDERRRAFLLKLIAEIHAA-OH) [E18, A22, L25, K26, A33-PTHrP(1-34)OH]",screen cAMP (% parent),[2]; [6],196 % parent
"E18,A22,L25,K26,E29-PTHrP(1-31) (AVSEHQLLHDKGKSIQDERRRAFLLKLIEEI-OH) [E18, A22, L25, K26, E29-PTHrP(1-31)OH]",screen cAMP (% parent),[2]; [7],100 % parent
"E18,A22,L25,K26,G29-PTHrP(1-31) (AVSEHQLLHDKGKSIQDERRRAFLLKLIGEI-OH) [E18, A22, L25, K26, G29-PTHrP(1-31)OH]",screen cAMP (% parent),[2]; [7],206 % parent
"E18,A22,L25,K26,G30-PTHrP(1-31) (AVSEHQLLHDKGKSIQDERRRAFLLKLIAGI-OH) [E18, A22, L25, K26, G30-PTHrP(1-31)OH]",screen cAMP (% parent),[2]; [7],286 % parent
"E18,A22,L25,K26,K31-PTHrP(1-31) (AVSEHQLLHDKGKSIQDERRRAFLLKLIAEK-OH) [E18, A22, L25, K26, K31-PTHrP(1-31)OH]",screen cAMP (% parent),[2]; [7],134 % parent
"E18,A22,L25,K26,L30-PTHrP(1-31) (AVSEHQLLHDKGKSIQDERRRAFLLKLIALI-OH) [E18, A22, L25, K26, L30-PTHrP(1-31)OH]",screen cAMP (% parent),[2]; [7],185 % parent
"E18,A22,L25,K26,N29-PTHrP(1-31) (AVSEHQLLHDKGKSIQDERRRAFLLKLINEI-OH) [E18, A22, L25, K26, M29-PTHrP(1-31)OH]",screen cAMP (% parent),[2]; [7],210 % parent
"E18,A22,L25,K26,N30-PTHrP(1-31) (AVSEHQLLHDKGKSIQDERRRAFLLKLIANI-OH) [E18, A22, L25, K26, N30-PTHrP(1-31)OH]",screen cAMP (% parent),[2]; [7],189 % parent
"E18,A22,L25,K26,S31-PTHrP(1-31) (AVSEHQLLHDKGKSIQDERRRAFLLKLIAES-OH) [E18, A22, L25, K26, S31-PTHrP(1-31)OH]",screen cAMP (% parent),[2]; [7],99 % parent
"E18,A22,L25,K26,V31-PTHrP(1-31) (AVSEHQLLHDKGKSIQDERRRAFLLKLIAEV-OH) [E18, A22, L25, K26, V31-PTHrP(1-31)OH]",screen cAMP (% parent),[2]; [7],181 % parent
"E18,L22,K26-PTHrP(1-28) (AVSEHQLLHDKGKSIQDERRRLFLHKLI-NH2) [E18, L22, K26-PTHrP(1-28)NH]",screen human PIR RG (% parent),[3],152 % parent
same,screen cAMP (% parent),[4],264 % parent
same,screen human PIR R0 (% parent),[5],64.4 % parent
"E18,N22,A26-PTHrP(1-28) (AVSEHQLLHDKGKSIQDERRRNFLHALI-NH2) [E18, N22, A26-PTHrP(1-28)NH]",screen human PIR RG (% parent),[3],140 % parent
same,screen cAMP (% parent),[4],171 % parent
same,screen human PIR R0 (% parent),[5],53.7 % parent
"E18,N22,K26-PTHrP(1-28) (AVSEHQLLHDKGKSIQDERRRNFLHKLI-NH2) [E18, N22, K26-PTHrP(1-28)NH]",screen human PIR RG (% parent),[3],147 % parent
same,screen cAMP (% parent),[4],236 % parent
same,screen human PIR R0 (% parent),[5],84.4 % parent
"E18,S22,A26-PTHrP(1-28) (AVSEHQLLHDKGKSIQDERRRSFLHALI-NH2) [E18, S22, A26-PTHrP(1-28)NH]",screen human PIR RG (% parent),[3],132 % parent
same,screen cAMP (% parent),[4],119 % parent
same,screen human PIR R0 (% parent),[5],31.9 % parent
"E18,W22,A26-PTHrP(1-28) (AVSEHQLLHDKGKSIQDERRRWFLHALI-NH2) [E18, W22, A26-PTHrP(1-28)NH]",screen human PIR RG (% parent),[3],116 % parent
same,screen cAMP (% parent),[4],75 % parent
same,screen human PIR R0 (% parent),[5],18.8 % parent
"E18,W22,K26-PTHrP(1-28) (AVSEHQLLHDKGKSIQDERRRWFLHKLI-NH2) [E18, W22, K26-PTHrP(1-28)NH]",screen human PIR RG (% parent),[3],149 % parent
same,screen cAMP (% parent),[4],165 % parent
same,screen human PIR R0 (% parent),[5],46.6 % parent
